# Results published in EP4650351A1, “INHIBITOR OF COMPLEMENT FACTOR B” (Nanjing Chia Tai Tianqing Pharmaceutical Co., Ltd., priority 2023, dated 2024).
# Columns and labels:
# [1] = system: alternative complement pathway in human serum; assay: Complement deposition assay of serum alternative pathway (Wieslab Complement system Alternative pathway kit); type: biochemical; details: human serum diluted 18-fold, 37 °C 60 minutes, absorbance 405 nm
# Description: The Wieslab® Complement system Alternative pathway kit (WIESLAB® Complement system Alternative pathway AP330 RUO) was used to detect the inhibitory activity of the compounds on the alternative complement pathway in human serum. Human serum was diluted 18-fold with the kit diluent. The diluted serum was added to a 96-well plate at 130 µL/well. Using a compound titrator (Tecan, D300e), test compounds at corresponding concentrations were added. The test concentration of the compounds started at 10 µM, with 3-fold serial dilution for 6 concentration points, detected in single wells. The DMSO ratio was uniformly adjusted to 0.1% using DMSO in all drug-treated wells. In the positive control wells, 0.1% DMSO and 130 µL of diluted serum were added; in the negative control wells, 0.1% DMSO and 130 µL of the kit diluent were added. The mixtures were pre-incubated at room temperature for 15 min. The incubated mixtures were transferred to the 96-well plate provided by the kit at 100 µL per well, incubated at 37 °C for 60 minutes, and the liquid in the wells was discarded. 300 µL of the washing solution in the kit was added to each well. The wells were washed three times. 100 µL of the conjugated antibody Conjugate in the kit was added to each well, and it was incubated at room temperature for 30 minutes. The liquid in the wells was removed. 300 µL of the washing solution in the kit was added to each well and the wells were washed three times. 100 µL of the substrate solution was added to each well and incubated at room temperature for 30 minutes. […] Table 2. Results of complement deposition in serum alternative pathway
# [2] = biological target: T1, human complement factor B (Homo sapiens, UniProt P00751); assay: TR-FRET competitive binding assay of human complement factor B (Cy5-labeled probe); details: inhibitory activity against complement factor B; biotin-labeled factor B 25 nM, Cy5 probe 75 nM, 4 °C
# T1 construct: purchased ComplementTech A135
# T1 sequence (P00751 26-764): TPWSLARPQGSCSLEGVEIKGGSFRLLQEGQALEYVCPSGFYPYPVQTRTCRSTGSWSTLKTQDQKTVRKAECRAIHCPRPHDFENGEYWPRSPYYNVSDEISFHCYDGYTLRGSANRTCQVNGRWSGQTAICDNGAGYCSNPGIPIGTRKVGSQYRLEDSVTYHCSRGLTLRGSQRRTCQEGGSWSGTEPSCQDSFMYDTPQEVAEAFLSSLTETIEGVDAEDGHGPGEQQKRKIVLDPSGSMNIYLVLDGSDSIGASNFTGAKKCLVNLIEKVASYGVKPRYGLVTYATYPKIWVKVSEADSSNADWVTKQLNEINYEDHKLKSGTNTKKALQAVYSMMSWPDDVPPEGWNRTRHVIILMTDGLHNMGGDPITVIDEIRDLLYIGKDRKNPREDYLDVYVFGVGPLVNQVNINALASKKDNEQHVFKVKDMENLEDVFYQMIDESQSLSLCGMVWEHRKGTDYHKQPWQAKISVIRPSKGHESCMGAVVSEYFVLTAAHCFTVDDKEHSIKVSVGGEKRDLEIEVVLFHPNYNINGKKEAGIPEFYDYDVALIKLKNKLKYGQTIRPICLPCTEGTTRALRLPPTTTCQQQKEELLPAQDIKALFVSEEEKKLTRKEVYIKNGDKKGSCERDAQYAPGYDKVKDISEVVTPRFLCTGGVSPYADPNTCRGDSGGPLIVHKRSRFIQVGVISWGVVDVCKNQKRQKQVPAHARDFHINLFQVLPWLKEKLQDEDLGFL
# [3] = Pharmacokinetic study in mice; type: in vivo; details: mouse, 10 mg/kg, PO (10 mpk), male ICR (CD-1) mice, plasma; for AUC(0-t): read-out: AUC0-24
# Description: Experimental Example 3: Pharmacokinetic study in mice
# Purpose of the experiment: To investigate the plasma pharmacokinetics in male ICR (CD-1) mice after single intravenous administration and gavage administration of the compounds of the present disclosure.
# Experimental animals: Male ICR (CD-1) mice, body weight 32-35 g; supplier: Vital River Laboratory Animal Technology Co., Ltd.
# Experimental procedures: Intravenous Administration (IV); Oral Gavage (PO); the dose was 10 mg/kg (vehicle: water (containing 0.5% methylcellulose (w/v) and 0.5% Tween 80 (v/v)).
# Sample collection: At each set time point, 40 µL of blood was collected from the orbital sinus of the experimental animals. Whole blood samples were placed in anticoagulant tubes containing EDTA-K2. The whole blood samples were centrifuged at 1500 g for 10 min to separate plasma. The upper-layer plasma samples were collected into sample tubes for LC-MS/MS analysis.
# Data analysis: Plasma concentrations were processed using the non-compartmental model in WinNonlin™Version6.3 (Pharsight, Mountain View, CA) pharmacokinetic software. Pharmacokinetic parameters Cl, T1/2, Cmax, and AUC0-24 were calculated using the linear-log trapezoidal method, and the results were shown in the table below. Table 3. Results of the pharmacokinetic study
IC50 [2] [µM],SMILES,also measured
,"CCCN1CCN(Cc2c(OC)cc(C)c3[nH]ccc23)C(c2ccc(C(=O)O)cc2)C1 (racemic) [Example 1-2, (±)4-(1-((5-methoxy-7-methyl-1H-indol-4-yl)methyl)-4-propylpiperazin-2-yl)benzoic acid]",IC50 [1]: 0.132 µM
> 1,"COc1cc(C)c2[nH]ccc2c1CN1CCN(C2COC2)CC1c1ccc(C(=O)O)cc1 (racemic) [Example 3, (±)-4-(1-((5-methoxy-7-methyl-1H-indol-4-yl)methyl)-4-(oxetan-3-yl)piperazin-2-yl)benzoic acid]",
> 1,"COc1cc(C)c2[nH]ccc2c1CN1CCN(CC2CC2)CC1c1ccc(C(=O)O)cc1 (racemic) [Example 4, (±)4-(4-(cyclopropylmethyl)-1-((5-methoxy-7-methyl-1H-indol-4-yl)methyl)piperazin-2-yl)benzoic acid]",
0.202,"COc1cc(C)c2[nH]ccc2c1CN1CCN(CC2CC2(F)F)CC1c1ccc(C(=O)O)cc1 (racemic) [Example 5, (±)4-(4-((2,2-difluorocyclopropyl)methyl)-1-((5-methoxy-7-methyl-1H-indol-4-yl)methyl)piperazin-2-yl)benzoic acid]",
> 1,"COc1cc(C)c2[nH]ccc2c1CN1CCN(CC(F)F)CC1c1ccc(C(=O)O)cc1 (racemic) [Example 6-1, (±)4-(4-(2,2-difluoroethyl)-1-((5-methoxy-7-methyl-1H-indol-4-yl)methyl)piperazin-2-yl)benzoic acid]",
,"COc1cc(C)c2[nH]ccc2c1CN1CCN(CC(F)F)CC1c1ccc(C(=O)O)cc1 (racemic) [Example 6-2, (±)4-(4-(2,2-difluoroethyl)-1-((5-methoxy-7-methyl-1H-indol-4-yl)methyl)piperazin-2-yl)benzoic acid]",IC50 [1]: 0.215 µM
0.0282,"COc1cc(C)c2[nH]ccc2c1CN1CCN(CCC(F)(F)F)CC1c1ccc(C(=O)O)cc1 (racemic) [Example 9, (±)4-(1-((5-methoxy-7-methyl-1H-indol-4-yl)methyl)-4-(3,3,3-trifluoropropyl)piperazin-2-yl) benzoic acid]",
0.117,"COc1cc(C)c2[nH]ccc2c1CN1CCN(C2CC(C(F)(F)F)C2)CC1c1ccc(C(=O)O)cc1 (racemic) [Example 10-2, (±)4-(1-((5-methoxy-7-methyl-1H-indol-4-yl)methyl)-4-(3-(trifluoromethyl)cyclobutyl)piperazin-2-yl)benzoic acid]",
0.0707,"COc1cc(C)c2[nH]ccc2c1CN1CCN(CC(F)(F)F)CC1c1ccc(C(=O)O)cc1 (racemic) [Example 11-2, (±)4-(1-((5-methoxy-7-methyl-1H-indol-4-yl)methyl)-4-(2,2,2-trifluoroethyl)piperazin-2-yl) benzoic acid]",
,"COc1cc(C)c2[nH]ccc2c1O[C@H]1CCN(CCC(F)(F)F)C[C@@H]1c1ccc(C(=O)O)cc1 (single isomer, unassigned) [Example 15a-2]",IC50 [1]: 0.0548 µM
0.196,"COc1cc(C)c2[nH]ccc2c1SC1CCN(CC(F)F)CC1c1ccc(C(=O)O)cc1 (single isomer, unassigned) [Example 16-4]",
,"[2H]C([2H])([2H])Oc1cc(C)c2[nH]ccc2c1O[C@H]1CCN(CCC(F)(F)F)C[C@@H]1c1ccc(C(=O)O)cc1 (single isomer, unassigned) [Example 17a-2]",Cmax [3]: 679 ng/mL; AUC(0-t) [3]: 6480 ng·h/mL
0.224,"CCOC1CCC(Sc2c(OC)cc(C)c3[nH]ccc23)C(c2ccc(C(=O)O)cc2)C1 (single isomer, unassigned) [Example 19a-2]",
0.257,"CCOC1CCC(Sc2c(OC)cc(C)c3[nH]ccc23)C(c2ccc(C(=O)O)cc2)C1 (single isomer, unassigned) [Example 19a-4]",
0.008,"CCOC1CCC(Sc2c(OC)cc(C)c3[nH]ccc23)C(c2ccc(C(=O)O)cc2)C1 (single isomer, unassigned) [Example 19b-2]",IC50 [1]: 0.104 µM
0.178,"CCOC1CCC(Sc2c(OC)cc(C)c3[nH]ccc23)C(c2ccc(C(=O)O)cc2)C1 (single isomer, unassigned) [Example 19b-4]",
0.0122,"CCOC1CCC(Oc2c(OC)cc(C)c3[nH]ccc23)C(c2ccc(C(=O)O)cc2)C1 (single isomer, unassigned) [Example 20a-4]",IC50 [1]: 0.0867 µM
0.024,"Cc1cc(OC(F)F)c(OC2CCN(CCC(F)(F)F)CC2c2ccc(C(=O)O)cc2)c2cc[nH]c12 (single isomer, unassigned) [Example 25-2]",
0.601,"CCOC1CCC(Cc2c(OC)cc(C)c3[nH]ccc23)N(c2ccc(C(=O)O)cc2)C1 (single isomer, unassigned) [Example 32a-2, 4-(5-ethoxy-2-((5-methoxy-7-methyl-1H-indol-4-yl)methyl)piperidin-1-yl)benzoic acid]",
0.285,"CCOC1CCC(Cc2c(OC)cc(C)c3[nH]ccc23)N(c2ccc(C(=O)O)cc2)C1 (single isomer, unassigned) [Example 32a-4, 4-(5-ethoxy-2-((5-methoxy-7-methyl-1H-indol-4-yl)methyl)piperidin-1-yl)benzoic acid]",
0.982,"COc1cc(C)c2[nH]ccc2c1O[C@H]1CCN(CC(F)F)C[C@@H]1c1ccc(C(=O)O)cc1 [Example 13a-1, 4-((3S,4S)-1-(2,2-difluoroethyl)-4-((5-methoxy-7-methyl-1H-indol-4-yl)oxy)piperidin-3-yl)benzoic acid]",
0.0122,"[2H]C([2H])([2H])Oc1cc(C)c2[nH]ccc2c1O[C@@H]1CCN(CC(F)F)C[C@H]1c1ccc(C(=O)O)cc1 [Example 26, 4-((3R,4R)-1-(2,2-difluoroethyl)-4-((5-(methoxy-d3)-7-methyl-1H-indol-4-yl)oxy)piperidin-3-yl) benzoic acid]",Cmax [3]: 944 ng/mL; AUC(0-t) [3]: 4960 ng·h/mL
0.00913,"[2H]C([2H])([2H])Oc1cc(C)c2[nH]ccc2c1O[C@@H]1CCN(CC(F)(F)F)C[C@H]1c1ccc(C(=O)O)cc1 [Example 27, 4-((3R,4R)-4-((5-(methoxy-d3)-7-methyl-1H-indol-4-yl)oxy)-1-(2,2,2-trifluoroethyl)piperidin-3-yl) benzoic acid]",
0.046,"Cc1cc(OC(F)F)c(O[C@@H]2CCN(CC(F)(F)F)C[C@H]2c2ccc(C(=O)O)cc2)c2cc[nH]c12 [Example 28, 4-((3R,4R)-4-((5-(difluoromethoxy)-7-methyl-1H-indol-4-yl)oxy)-1-(2,2,2-trifluoroethyl)piperidin-3-yl)benzoic acid]",
0.0312,"Cc1cc(OC(F)F)c(O[C@@H]2CCN(CC(F)F)C[C@H]2c2ccc(C(=O)O)cc2)c2cc[nH]c12 [Example 29, 4-((3R,4R)-1-(2,2-difluoroethyl)-4-((5-(difluoromethoxy)-7-methyl-1H-indol-4-yl)oxy)piperidin-3-yl) benzoic acid]",
0.0722,"Cc1cc(OC(F)(F)F)c(O[C@@H]2CCN(CC(F)F)C[C@H]2c2ccc(C(=O)O)cc2)c2cc[nH]c12 [Example 30, 4-((3R,4R)-1-(2,2-difluoroethyl)-4-((7-methyl-5-(trifluoromethoxy)-1H-indol-4-yl)oxy)piperidin-3-yl)benzoic acid]",
0.427,"Cc1cc(OC(F)(F)F)c(O[C@@H]2CCN(CC(F)(F)F)C[C@H]2c2ccc(C(=O)O)cc2)c2cc[nH]c12 [Example 31, 4-((3R,4R)-4-((7-methyl-5-(trifluoromethoxy)-1H-indol-4-yl)oxy)-1-(2,2,2-trifluoroethyl)piperidin-3-yl)benzoic acid]",
0.0237,"COc1cc(C)c2[nH]ccc2c1O[C@@H]1CCN(CC(F)(F)F)C[C@H]1c1ccc(-c2n[nH]c(=O)o2)cc1 [Example 33, 5-(4-((3R,4R)-4-((5-methoxy-7-methyl-1H-indol-4-yl)oxy)-1-(2,2,2-trifluoroethyl)piperidin-3-yl)phenyl)-1,3,4-oxadiazol-2(3H)-one]",
,"CCO[C@H]1CCN(Cc2c(OC)cc(C)c3[nH]ccc23)[C@H](c2ccc(C(=O)O)cc2)C1 [LNP023, reference compound]",Cmax [3]: 1160 ng/mL; AUC(0-t) [3]: 4110 ng·h/mL
